Assay results: patent US6737383B1, “Herbicidal oxadiazolidines” (priority 1999, dated 2004)

What was measured:
giant foxtail = assay: Test B pre/postemergence giant foxtail; type: in vivo, Setaria faberii
Procedure, shortened: (§1)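 Response is a visual 0-to-10 score relative to untreated plants, where 0 means no effect and 10 means complete control, taken twelve to sixteen days after application. Treatments went onto soil at planting and onto foliage of 1- to 4-leaf plants, using a surfactant-containing non-phytotoxic solvent.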

morningglory = assay: Test B pre/postemergence morningglory; type: in vivo, Ipomoea hederacea
Procedure, shortened: as §1

bedstraw = assay: Test B pre/postemergence bedstraw; type: in vivo, Galium aparine; settings: Preemergence
Procedure, shortened: as §1

wheat = assay: Test B pre/postemergence wheat; type: in vivo, Triticum aestivum
Procedure, shortened: as §1

velvetleaf = assay: Test B pre/postemergence velvetleaf; type: in vivo, Abutilon theophrasti
Procedure, shortened: as §1

cocklebur = assay: Test B pre/postemergence cocklebur; type: in vivo, Xanthium strumarium
Procedure, shortened: as §1

surinam grass = assay: Test B pre/postemergence surinam grass; type: in vivo, Brachiaria decumbens
Procedure, shortened: as §1

duck salad = assay: Test B flood test duck salad; type: in vivo, Heteranthera limosa
Procedure, shortened: (§2)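 Each value is a visual injury score relative to controls, with 10 meaning complete control and 0 no effect. Evaluation took place twelve to sixteen days after the 2-leaf-stage plants were treated and kept in the greenhouse.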

blackgrass = assay: Test B pre/postemergence blackgrass; type: in vivo, Alopecurus myosuroides
Procedure, shortened: as §1

wild oat = assay: Test B pre/postemergence wild oat; type: in vivo, Avena fatua
Procedure, shortened: as §1

smallflower flatsedge = assay: Test B flood test smallflower flatsedge; type: in vivo, Cyperus difformis
Procedure, shortened: as §2

purple nutsedge = assay: Test B pre/postemergence purple nutsedge; type: in vivo, Cyperus rotundus
Procedure, shortened: as §1

crabgrass = assay: Test B pre/postemergence crabgrass; type: in vivo, Digitaria sanguinalis
Procedure, shortened: as §1

rice = assay: Test B flood test rice; type: in vivo, Oryza sativa
Procedure, shortened: as §2

soybean = assay: Test B pre/postemergence soybean; type: in vivo, Glycine max
Procedure, shortened: as §1

pigweed = assay: Test B pre/postemergence pigweed; type: in vivo, Amaranthus retroflexus
Procedure, shortened: as §1

sugar beet = assay: Test B pre/postemergence sugar beet; type: in vivo, Beta vulgaris
Procedure, shortened: as §1

rape = assay: Test B pre/postemergence rape; type: in vivo, Brassica napus
Procedure, shortened: as §1

corn = assay: Test B pre/postemergence corn; type: in vivo, Zea mays
Procedure, shortened: as §1

bamyardgrass = assay: Test B flood test barnyardgrass; type: in vivo, Echinochloa crus-galli
Procedure, shortened: as §2

[1] = Postemergence, Rate 62 g/ha, scale of 0 to 10, 0 is no effect, 10 is complete control
[2] = Postemergence, Rate 125 g/ha, scale of 0 to 10 where 0 is no effect and 10 is complete control
[3] = Postemergence, Rate 250 g/ha, scale of 0 to 10, 0 is no effect, 10 is complete control
[4] = Postemergence, Rate 500 g/ha, scale of 0 to 10 where 0 is no effect and 10 is complete control
[5] = Preemergence, Rate 62 g/ha, scale 0 to 10 (0 no effect, 10 complete control)
[6] = Preemergence, Rate 125 g/ha, scale of 0 to 10 where 0 is no effect and 10 is complete control
[7] = Preemergence, Rate 500 g/ha, scale of 0 to 10 where 0 is no effect and 10 is complete control
[8] = Rate 62 g/ha, flood test species, Pre-emergence, visual evaluation after twelve to sixteen days
[9] = Rate 125 g/ha, under heading Pre-emergence, flood test species, visual evaluation after twelve to sixteen days
[10] = Rate 250 g/ha, Pre-emergence (flood test species), scale 0 to 10, 0 is no effect, 10 is complete control
[11] = Rate 500 g/ha, Pre-emergence section of Table B, 0 to 10 scale (0 no effect, 10 complete control)

Compound: CC(C)N(C(=O)n1oc(=O)n(CC[N+](=O)[O-])c1=O)c1ccc(F)cc1F [Compound 591]
- Giant foxtail plant response rating (giant foxtail; [1]): 0
- Plant response rating, Giant foxtail (giant foxtail; [2]): 0
- Giant foxtail plant response rating (giant foxtail; [3]): 0
- Plant response rating, Giant foxtail (giant foxtail; [4]): 0
- Giant foxtail plant response rating (giant foxtail; [5]): 0
- Giant foxtail plant response rating (giant foxtail; [6]): 0
- Plant response rating, Giant foxtail (giant foxtail; [7]): 0
- Morningglory plant response rating (morningglory; [1]): 0
- Plant response rating, Morningglory (morningglory; [2]): 0
- Morningglory plant response rating (morningglory; [3]): 2
- Plant response rating, Morningglory (morningglory; [4]): 3
- Morningglory plant response rating (morningglory; [5]): 0
- Morningglory plant response rating (morningglory; [6]): 0
- Plant response rating, Morningglory (morningglory; [7]): 0
- Bedstraw plant response rating (bedstraw; Rate 62 g/ha, scale 0 to 10 (0 no effect, 10 complete control)): 0
- Bedstraw plant response rating (bedstraw; Rate 125 g/ha, scale of 0 to 10 where 0 is no effect and 10 is complete control): 0
- Plant response rating, Wheat (wheat; [2]): 0
- Wheat plant response rating (wheat; [3]): 0
- Plant response rating, Wheat (wheat; [4]): 0
- Wheat plant response rating (wheat; [5]): 0
- Wheat plant response rating (wheat; [6]): 0
- Plant response rating, Wheat (wheat; [7]): 0
- Plant response rating, Velvetleaf (velvetleaf; [2]): 0
- Velvetleaf plant response rating (velvetleaf; [3]): 0
- Plant response rating, Velvetleaf (velvetleaf; [4]): 0
- Velvetleaf plant response rating (velvetleaf; [5]): 0
- Velvetleaf plant response rating (velvetleaf; [6]): 0
- Plant response rating, Velvetleaf (velvetleaf; [7]): 0
- Cocklebur plant response rating (cocklebur; [1]): 0
- Plant response rating, Cocklebur (cocklebur; [2]): 0
- Cocklebur plant response rating (cocklebur; [3]): 0
- Plant response rating, Cocklebur (cocklebur; [4]): 0
- Cocklebur plant response rating (cocklebur; [5]): 0
- Cocklebur plant response rating (cocklebur; [6]): 0
- Cocklebur plant response rating (0 to 10 scale) (cocklebur; Preemergence, Rate 250 g/ha): 0
- Plant response rating, Cocklebur (cocklebur; [7]): 0
- B. signalgrass plant response rating (surinam grass; [1]): 0
- Plant response rating, B. signalgrass (surinam grass; [2]): 0
- B. signalgrass plant response rating (surinam grass; [3]): 0
- Plant response rating, B. signalgrass (surinam grass; [4]): 0
- B. signalgrass plant response rating (surinam grass; [5]): 0
- B. signalgrass plant response rating (surinam grass; [6]): 0
- B. signalgrass plant response rating (0 to 10 scale, 0 is no effect, 10 is complete control) (surinam grass; Preemergence, Rate 250 g/ha): 0
- B. signalgrass plant response rating (surinam grass; [7]): 0
- Plant response rating, Ducksalad (0 to 10 scale, 0 is no effect, 10 is complete control) (duck salad; [8]): 0
- Ducksalad plant response rating (0 to 10 scale, 0 is no effect, 10 is complete control) (duck salad; [9]): 0
- Ducksalad plant response rating (duck salad; [10]): 0
- Ducksalad plant response rating (duck salad; [11]): 0
- Blackgrass plant response rating (blackgrass; [1]): 0
- Plant response rating, Blackgrass (blackgrass; [2]): 0
- Blackgrass plant response rating (blackgrass; [3]): 0
- Plant response rating, Blackgrass (blackgrass; [4]): 0
- Blackgrass plant response rating (blackgrass; [5]): 0
- Blackgrass plant response rating (blackgrass; [6]): 0
- Blackgrass plant response rating (0 to 10 scale) (blackgrass; Preemergence, Rate 250 g/ha): 0
- Blackgrass plant response rating (blackgrass; [7]): 0
- Plant response rating, Wild oats (wild oat; [2]): 0
- Wild oats plant response rating (wild oat; [3]): 0
- Plant response rating, Wild oats (wild oat; [4]): 0
- Wild oats plant response rating (wild oat; [5]): 0
- Wild oats plant response rating (wild oat; [6]): 0
- Plant response rating, Wild oats (wild oat; [7]): 0
- Plant response rating, S. Flatsedge (0 to 10 scale, 0 is no effect, 10 is complete control) (smallflower flatsedge; [8]): 0
- S. Flatsedge plant response rating (0 to 10 scale, 0 is no effect, 10 is complete control) (smallflower flatsedge; [9]): 0
- S. Flatsedge plant response rating (smallflower flatsedge; [10]): 0
- S. Flatsedge plant response rating (smallflower flatsedge; [11]): 0
- Nutsedge plant response rating (purple nutsedge; [1]): 0
- Plant response rating, Nutsedge (purple nutsedge; [2]): 0
- Nutsedge plant response rating (purple nutsedge; [3]): 0
- Plant response rating, Nutsedge (purple nutsedge; [4]): 0
- Nutsedge plant response rating (purple nutsedge; [5]): 0
- Nutsedge plant response rating (purple nutsedge; [6]): 0
- Plant response rating, Nutsedge (purple nutsedge; [7]): 0
- Crabgrass plant response rating (crabgrass; [1]): 0
- Plant response rating, Crabgrass (crabgrass; [2]): 0
- Crabgrass plant response rating (crabgrass; [3]): 0
- Plant response rating, Crabgrass (crabgrass; [4]): 0
- Crabgrass plant response rating (crabgrass; [5]): 0
- Crabgrass plant response rating (crabgrass; [6]): 0
- Plant response rating, Crabgrass (crabgrass; [7]): 0
- Plant response rating, Rice (0 to 10 scale, 0 is no effect, 10 is complete control) (rice; [8]): 0
- Rice plant response rating (0 to 10 scale, 0 is no effect, 10 is complete control) (rice; [9]): 0
- Rice plant response rating (rice; [10]): 0
- Rice plant response rating (rice; [11]): 0
- Plant response rating, Soybean (soybean; [2]): 1
- Soybean plant response rating (soybean; [3]): 2
- Plant response rating, Soybean (soybean; [4]): 2
- Soybean plant response rating (soybean; [5]): 0
- Soybean plant response rating (soybean; [6]): 0
- Plant response rating, Soybean (soybean; [7]): 0
- Plant response rating, Redroot pigweed (pigweed; [2]): 0
- Redroot pigweed plant response rating (pigweed; [3]): 0
- Plant response rating, Redroot pigweed (pigweed; [4]): 0
- Redroot pigweed plant response rating (pigweed; [5]): 0
- Redroot pigweed plant response rating (pigweed; [6]): 0
- Plant response rating, Redroot pigweed (pigweed; [7]): 0
- Plant response rating, Sugarbeets (sugar beet; [2]): 0
- Sugarbeets plant response rating (sugar beet; [3]): 0
- Plant response rating, Sugarbeets (sugar beet; [4]): 0
- Sugarbeets plant response rating (sugar beet; [5]): 0
- Sugarbeets plant response rating (sugar beet; [6]): 0
- Plant response rating, Sugarbeets (sugar beet; [7]): 0
- Rape plant response rating (rape; [1]): 0
- Plant response rating, Rape (rape; [2]): 0
- Rape plant response rating (rape; [3]): 0
- Plant response rating, Rape (rape; [4]): 0
- Rape plant response rating (rape; [5]): 0
- Rape plant response rating (rape; [6]): 0
- Plant response rating, Rape (rape; [7]): 0
- Corn plant response rating (corn; [1]): 0
- Plant response rating, Corn (corn; [2]): 0
- Corn plant response rating (corn; [3]): 0
- Plant response rating, Corn (corn; [4]): 0
- Corn plant response rating (corn; [5]): 0
- Corn plant response rating (corn; [6]): 0
- Corn plant response rating (0 to 10 scale) (corn; Preemergence, Rate 250 g/ha): 0
- Plant response rating, Corn (corn; [7]): 0
- Plant response rating, Barnyardgrass (0 to 10 scale, 0 is no effect, 10 is complete control) (bamyardgrass; [8]): 0
- Barnyardgrass plant response rating (0 to 10 scale, 0 is no effect, 10 is complete control) (bamyardgrass; [9]): 0
- Barnyardgrass plant response rating (bamyardgrass; [10]): 0
- Barnyardgrass plant response rating (bamyardgrass; [11]): 0
